This note sets out measurements from ChEMBL document CHEMBL2146457, “Development of 'DFG-out' inhibitors of gatekeeper mutant kinases” (Bioorg Med Chem Lett, 2012).

The nature of data set [1]: Cytotoxicity against mouse BA/F3 cells expressing wild type Bcr-Abl. It is filed as functional, cell-based. The following applies: BaF3.
A short description of data set [2]: Cytotoxicity against mouse BA/F3 cells expressing imatinib resistant Bcr-Abl […] mutant. The note with it: BaF3. Type of data set: functional, cell-based.
Data set [3] can be described thus: Cytotoxicity against wild type mouse BA/F3 cells. Type of data set: cell-based. The note with it: BaF3.
The nature of data set [4]: Half life in rat at 1 mg/kg, iv. On the set-up: dose 1 mg/kg, route intravenous. Type of data set: ADME, organism-based. The following applies: in vivo.
Data set [5] is described as follows: MRT in rat at 2 mg/kg, po. Type of data set: ADME, organism-based. On the set-up: dose 2 mg/kg, route oral. The note with it: in vivo.
A further data set has as its system Rattus norvegicus. Kind of data set: Oral bioavailability in rat at 2 mg/kg. The following applies: in vivo. Type of data set: ADME, organism-based.
Data set [6] in a line: Cytotoxicity against mouse parental BA/F3 cells. The following applies: BaF3.
Data set [7] is described as follows: MRT in rat at 1 mg/kg, iv. The following applies: in vivo. The arrangement: dose 1 mg/kg, route intravenous. It is filed as ADME, organism-based.
Data set [8] can be described thus: Cmax in rat at 2 mg/kg, po. The note with it: in vivo. Type of data set: ADME, organism-based. On the set-up: dose 2 mg/kg, route oral.
Data set [9] in a line: AUC in rat at 1 mg/kg, iv. The following applies: plasma. On the set-up: dose 1 mg/kg, route intravenous. Type of data set: ADME, organism-based.
Data set [10] can be described thus: Clearance in rat at 1 mg/kg, iv. Type of data set: ADME, organism-based. The arrangement: dose 1 mg/kg, route intravenous. The note with it: in vivo.
Data set [11] can be described thus: AUC in rat at 2 mg/kg, po. Type of data set: ADME, organism-based. On the set-up: dose 2 mg/kg, route oral. The note with it: plasma.
Data set [12] can be described thus: Clearance in rat at 2 mg/kg, po. Type of data set: ADME, organism-based. The arrangement: dose 2 mg/kg, route oral. The note with it: in vivo.
Data set [13] in a line: Cmax in rat at 1 mg/kg, iv. Type of data set: ADME, organism-based. On the set-up: dose 1 mg/kg, route intravenous. The note with it: in vivo.
Data set [14] in a line: Half life in rat at 2 mg/kg, po. On the set-up: dose 2 mg/kg, route oral. Type of data set: ADME, organism-based. The following applies: in vivo.
Data set [15] is described as follows: Volume of distribution at steady state in rat at 1 mg/kg, iv. It is filed as ADME, organism-based. The arrangement: dose 1 mg/kg, route intravenous. The following applies: in vivo, read-out: Vdss.

Broadly, the EC50 is the concentration at which the effect is half-maximal. The term half-life denotes the time in which the quantity being followed falls by half. A higher half-life goes with slow loss. For orientation: MRT means a mean duration of stay, worked out from the concentration-time curve. What is called Cmax is the peak of the concentration-time curve. One may read the AUC as concentration integrated over time. High values mean high exposure, low ones low exposure. In general, clearance refers to the volume of plasma or blood freed of the substance per unit of time. Low readings indicate inefficient removal, high ones efficient removal. As a reminder, the CL/F is the apparent clearance, not corrected for the fraction that reaches the circulation.

Take `O=C(Nc1ccc(N2CCNCC2)c(C(F)(F)F)c1)c1cccc(-c2ccc3nc(NC(=O)C4CC4)sc3n2)c1`: the results for the EC50 in data set [1], in data set [2] and in data set [3] were 2.31 µM, 2.3 µM and 2.3 µM, respectively.
On to `Nc1nc2ccc(-c3cccc(C(=O)Nc4cccc(C(F)(F)F)c4)c3)nc2s1`, for which the EC50 in data set [1], in [2] and in data set [3] was > 10 µM each time.
Turning to `CC(=O)Nc1nc2ccc(-c3cccc(C(=O)Nc4cccc(C(F)(F)F)c4)c3)nc2s1`, the EC50 is 5 µM in data set [1], 3.77 µM in data set [2] and > 10 µM in [3].
On the same counts, the results for `O=C(Nc1cccc(C(F)(F)F)c1)c1cccc(-c2ccc3nc(NC(=O)C4CC4)sc3n2)c1` are 0.42 µM, 0.96 µM and 0.91 µM.
In the same order, the values of `O=C(Nc1cccc(C(F)(F)F)c1)c1cccc(-c2ccc3nc(NC(=O)C4CCNCC4)sc3n2)c1` are > 10 µM, > 10 µM and > 10 µM.
For the compound `CC(=O)N1CCN(CCC(=O)Nc2nc3ccc(-c4cccc(C(=O)Nc5cccc(C(F)(F)F)c5)c4)nc3s2)CC1`, the EC50 was 5.21 µM in data set [1], > 10 µM in data set [2] and > 10 µM in data set [3].
In the case of `O=C(Nc1nc2ccc(-c3cccc(C(=O)Nc4cccc(C(F)(F)F)c4)c3)nc2s1)NC1CCNCC1`, the EC50 is 7.6 µM in data set [1], 7.18 µM in data set [2] and > 10 µM in data set [3].
In the same order, the values of `Cc1nc(Nc2nc3ccc(-c4cccc(C(=O)Nc5cccc(C(F)(F)F)c5)c4)nc3s2)cc(N2CCNCC2)n1` are 1.9 µM, 2.41 µM and 6.74 µM.
As to `O=C(Nc1cccc(C(F)(F)F)c1)c1cccc(-c2ccc3nc(Nc4ccc(S(=O)(=O)N5CCNCC5)cc4)sc3n2)c1`, the EC50 is 6.21 µM in data set [1], > 10 µM in data set [2] and > 10 µM in [3].
As to `CCN1CCN(Cc2ccc(NC(=O)c3cccc(-c4ccc5nc(N)sc5n4)c3)cc2C(F)(F)F)CC1`, the EC50 in [1], in data set [2] and in data set [3] was > 10 µM each time.
Turning to `CCN1CCN(Cc2ccc(NC(=O)c3cccc(-c4ccc5nc(NC(C)=O)sc5n4)c3)cc2C(F)(F)F)CC1`, the EC50 was 0.139 µM in [1], 0.193 µM in data set [2] and 4.16 µM in data set [3].
For the compound `CCN1CCN(Cc2ccc(NC(=O)c3cccc(-c4ccc5nc(NC(=O)C6CC6)sc5n4)c3)cc2C(F)(F)F)CC1`, the half-life in data set [4] was 5.8 h; in data set [14], 4.7 h. Besides, the MRT in [5] amounted to 7.7 h; in data set [7], 8.1 h. In the data set on Rattus norvegicus, this compound came in with an F of 18.8%. Besides, the EC50 is 3.08 µM in data set [6], 0.156 µM in [2] and 3.08 µM in data set [3]. The Cmax in data set [8] came to 53.1 ng/mL; in [13], 292 ng/mL. In addition, the results for the AUC in data set [9] and in data set [11] were 1230 ng·h/mL and 462 ng·h/mL, respectively. The same compound gave a clearance in [10] of 13.7 mL/min/kg. Also, the apparent clearance (CL/F) in data set [12] came out at 74.4 mL/min/kg. In data set [15], the Vd came out at 6.5 L/kg.
Regarding `CCN1CCN(Cc2ccc(NC(=O)c3cccc(-c4ccc5nc(Nc6ccccn6)sc5n4)c3)cc2C(F)(F)F)CC1`, the EC50 in [1] amounted to 0.146 µM; in data set [2], 0.276 µM; in data set [3] it was 3.53 µM.
On the same counts, the results for `O=C(Nc1ccc(-n2ccnc2)cc1)c1cccc(-c2ccc3nc(NC(=O)C4CC4)sc3n2)c1` are > 10 µM, > 10 µM and > 10 µM.
In the case of `Cc1cn(-c2cc(NC(=O)c3cccc(-c4ccc5nc(NC(=O)C6CC6)sc5n4)c3)cc(C(F)(F)F)c2)cn1`, the half-life in data set [4] is 2.4 h; in [14], 3.7 h. Further, the values for the MRT in data set [5] and in data set [7] were 5.3 h and 3.1 h, respectively. For the same compound, the F in the data set with Rattus norvegicus is given as 3.7%. Also, the results for the highest concentration (Cmax) in data set [8] and in [13] were 32 ng/mL and 672 ng/mL, respectively. Besides, the AUC is 1850 ng·h/mL in [9] and 136 ng·h/mL in [11]. Moreover, the EC50 in [1] was determined as 0.38 µM; in data set [2], 0.19 µM; in data set [3], 1.99 µM. The compound also gave a clearance in [10] of 9.5 mL/min/kg. The compound further came in with an apparent clearance (CL/F) in [12] of 303 mL/min/kg. Moreover, the Vd in data set [15] amounted to 1.7 L/kg.
`CCN1CCN(Cc2ccc(NC(=O)c3ccc(C)c(-c4ccc5nc(NC(=O)C6CC6)sc5n4)c3)cc2C(F)(F)F)CC1`: the EC50 in [1] amounted to 0.001 µM; in data set [2], 0.06 µM; in data set [3] it was 1.23 µM.
As to `Cc1cn(-c2cc(NC(=O)c3ccc(C)c(-c4ccc5nc(NC(=O)C6CC6)sc5n4)c3)cc(C(F)(F)F)c2)cn1`, the results for the EC50 in data set [1], in data set [2] and in data set [3] were 0.03 µM, 0.56 µM and 4.67 µM, respectively.
In the same order, the values of `CCN1CCN(Cc2ccc(NC(=O)c3ccc(F)c(-c4ccc5nc(NC(=O)C6CC6)sc5n4)c3)cc2C(F)(F)F)CC1` are 0.02 µM, 0.3 µM and > 10 µM.
In the same order, the values of `Cc1cn(-c2cc(NC(=O)c3ccc(F)c(-c4ccc5nc(NC(=O)C6CC6)sc5n4)c3)cc(C(F)(F)F)c2)cn1` are 0.02 µM, 0.59 µM and > 10 µM.
In the case of `CCN1CCN(Cc2ccc(C(=O)Nc3cccc(-c4ccc5nc(NC(=O)C6CC6)sc5n4)c3)cc2C(F)(F)F)CC1`, the values for the EC50 in data set [1], in data set [2] and in data set [3] were 0.2 µM, 0.78 µM and > 10 µM, respectively.
In the same order, the values of `CCN1CCN(Cc2ccc(NC(=O)Nc3cccc(-c4ccc5nc(NC(=O)C6CC6)sc5n4)c3)cc2C(F)(F)F)CC1` are 0.018 µM, 0.013 µM and 0.69 µM.
On the same counts, the results for `Cc1cn(-c2cc(NC(=O)Nc3cccc(-c4ccc5nc(NC(=O)C6CC6)sc5n4)c3)cc(C(F)(F)F)c2)cn1` are 1.24 µM, 0.55 µM and > 10 µM.
